Experimental data reported in the OligoGym collection.
HELM strings list units from the 5' end as sugar, base in round brackets, then linkage (d deoxyribose, r ribose, m 2'-O-methyl, p phosphodiester). Strings are as the collection lists them; they lack the last nucleoside at the 3' end of the tested compound. [moe] = 2'-O-(2-methoxyethyl) (MOE); [sp] = phosphorothioate linkage; [m5C] = 5-methylcytosine

Target: UBE3A-ATS
Test: mouse, dose not given
Conditions: ASO

“RNA1{[moe](T)[sp].[moe]([m5C])p.[moe](A)p.[moe]([m5C])p.[moe]([m5C])p.[moe](A)[sp].d(T)[sp].d(T)[sp].d(T)[sp].d(T)[sp].d(G)[sp].d(A)[sp].d([m5C])[sp].d([m5C])[sp].[moe](T)p.[moe](T)[sp].[moe]([m5C])}$$$$ (last 3' nucleoside missing)” gave a 3 h FOB score of 0.3 score 0-7.
With “RNA1{[moe](T)[sp].[moe]([m5C])p.[moe](A)p.[moe]([m5C])p.[moe]([m5C])p.[moe](A)p.d(T)[sp].d(T)[sp].d(T)[sp].d(T)[sp].d(G)[sp].d(A)[sp].d([m5C])[sp].d([m5C])[sp].d(T)[sp].d(T)[sp].[moe]([m5C])p.[moe](T)[sp].[moe](T)}$$$$ (last 3' nucleoside missing)” the 3 h FOB score was 1 score 0-7.
For “RNA1{[moe](T)[sp].[moe]([m5C])p.[moe](A)p.[moe]([m5C])p.[moe]([m5C])p.d(A)[sp].d(T)[sp].d(T)[sp].d(T)[sp].d(T)[sp].d(G)[sp].d(A)[sp].d([m5C])[sp].d([m5C])[sp].d(T)[sp].[moe](T)p.[moe]([m5C])p.[moe](T)[sp].[moe](T)}$$$$ (last 3' nucleoside missing)”, the 3 h FOB score was 1 score 0-7.
In the case of “RNA1{[moe](T)[sp].[moe]([m5C])p.[moe](A)p.[moe]([m5C])p.d([m5C])[sp].d(A)[sp].d(T)[sp].d(T)[sp].d(T)[sp].d(T)[sp].d(G)[sp].d(A)[sp].d([m5C])[sp].d([m5C])[sp].[moe](T)p.[moe](T)p.[moe]([m5C])p.[moe](T)[sp].[moe](T)}$$$$ (last 3' nucleoside missing)”, the 3 h FOB score is reported as 2 score 0-7.
With “RNA1{[moe](T)[sp].[moe]([m5C])p.[moe](G)p.[moe](G)p.[moe](A)p.d(T)[sp].d(A)[sp].d(T)[sp].d(A)[sp].d(G)[sp].d([m5C])[sp].d(T)[sp].d(T)[sp].d(T)[sp].d(T)[sp].[moe](A)p.[moe]([m5C])p.[moe](A)[sp].[moe](T)}$$$$ (last 3' nucleoside missing)” the 3 h FOB score was 1 score 0-7.
For “RNA1{[moe](T)[sp].[moe]([m5C])p.[moe](T)p.[moe](G)p.[moe](G)p.d(A)[sp].d(A)[sp].d(T)[sp].d([m5C])[sp].d(T)[sp].d(T)[sp].d(G)[sp].d(T)[sp].d(A)[sp].d(G)[sp].[moe](A)p.[moe](G)p.[moe](G)[sp].[moe](A)}$$$$ (last 3' nucleoside missing)”, the 3 h FOB score was 2.7 score 0-7.
“RNA1{[moe](T)[sp].[moe]([m5C])p.[moe](T)p.[moe](G)p.[moe]([m5C])p.[moe](T)p.d([m5C])[sp].d(A)[sp].d(G)[sp].d(T)[sp].d(T)[sp].d(A)[sp].d(G)[sp].d(G)[sp].d(T)[sp].d(T)[sp].[moe](A)p.[moe](G)[sp].[moe](T)}$$$$ (last 3' nucleoside missing)” was tested, and the 3 h FOB score was 4 score 0-7.
Work on “RNA1{[moe](T)[sp].[moe]([m5C])p.[moe](T)p.[moe](G)p.[moe]([m5C])p.d(T)[sp].d(A)[sp].d(T)[sp].d(T)[sp].d(G)[sp].d(T)[sp].d(T)[sp].d(G)[sp].d(G)[sp].d(A)[sp].[moe](T)p.[moe](A)p.[moe](T)[sp].[moe]([m5C])}$$$$ (last 3' nucleoside missing)” yielded a 3 h FOB score of 6.5 score 0-7.
“RNA1{[moe](T)[sp].[moe]([m5C])p.[moe](T)p.[moe](G)p.[moe]([m5C])p.d(T)[sp].d([m5C])[sp].d(A)[sp].d(G)[sp].d(T)[sp].d(T)[sp].d(A)[sp].d(G)[sp].d(G)[sp].d(T)[sp].[moe](T)p.[moe](A)p.[moe](G)[sp].[moe](T)}$$$$ (last 3' nucleoside missing)” was tested, and the 3 h FOB score was 7 score 0-7.
Work on “RNA1{[moe](T)[sp].[moe]([m5C])p.[moe](T)p.[moe](G)p.d([m5C])[sp].d(T)[sp].d([m5C])[sp].d(A)[sp].d(G)[sp].d(T)[sp].d(T)[sp].d(A)[sp].d(G)[sp].d(G)[sp].[moe](T)p.[moe](T)p.[moe](A)p.[moe](G)[sp].[moe](T)}$$$$ (last 3' nucleoside missing)” yielded a 3 h FOB score of 4 score 0-7.
Work on “RNA1{[moe](T)[sp].[moe]([m5C])p.[moe](T)p.[moe](T)p.[moe](A)p.d([m5C])[sp].d(T)[sp].d(G)[sp].d(A)[sp].d(T)[sp].d(T)[sp].d([m5C])[sp].d(A)[sp].d(G)[sp].d([m5C])[sp].[moe]([m5C])p.[moe](A)p.[moe](T)[sp].[moe](T)}$$$$ (last 3' nucleoside missing)” yielded a 3 h FOB score of 4 score 0-7.
For “RNA1{[moe](T)[sp].[moe]([m5C])p.[moe](T)p.[moe](T)p.[moe](G)p.d([m5C])[sp].d(T)[sp].d(G)[sp].d(A)[sp].d(T)[sp].d([m5C])[sp].d(A)[sp].d([m5C])[sp].d(A)[sp].d(T)[sp].[moe](T)p.[moe](A)p.[moe]([m5C])[sp].[moe]([m5C])}$$$$ (last 3' nucleoside missing)”, the 3 h FOB score was 0 score 0-7.
“RNA1{[moe](T)[sp].[moe]([m5C])p.[moe](T)p.[moe]([m5C])p.[moe](A)p.d(T)[sp].d(G)[sp].d(T)[sp].d(G)[sp].d(T)[sp].d(T)[sp].d(T)[sp].d(T)[sp].d(T)[sp].d(G)[sp].[moe](T)p.[moe](T)p.[moe]([m5C])[sp].[moe]([m5C])}$$$$ (last 3' nucleoside missing)” showed a 3 h FOB score of 5 score 0-7.
Work on “RNA1{[moe](T)[sp].[moe]([m5C])p.[moe](T)p.[moe]([m5C])p.[moe](G)p.d(G)[sp].d(G)[sp].d(T)[sp].d(A)[sp].d(T)[sp].d(A)[sp].d(T)[sp].d(A)[sp].d(A)[sp].d(A)[sp].[moe](T)p.[moe](T)p.[moe](A)[sp].[moe](A)}$$$$ (last 3' nucleoside missing)” yielded a 3 h FOB score of 0 score 0-7.
For “RNA1{[moe](T)[sp].[moe]([m5C])p.[moe](T)p.[moe]([m5C])p.[moe]([m5C])p.d(A)[sp].d(G)[sp].d(T)[sp].d(T)[sp].d(T)[sp].d(T)[sp].d([m5C])[sp].d(G)[sp].d([m5C])[sp].d([m5C])[sp].[moe]([m5C])p.[moe](G)p.[moe](T)[sp].[moe](T)}$$$$ (last 3' nucleoside missing)”, the 3 h FOB score was 4.7 score 0-7.
“RNA1{[moe](T)[sp].[moe]([m5C])p.[moe]([m5C])p.[moe]([m5C])p.[moe](A)p.d(T)[sp].d(T)[sp].d([m5C])[sp].d(A)[sp].d(G)[sp].d([m5C])[sp].d(A)[sp].d([m5C])[sp].d(T)[sp].d(T)[sp].[moe](A)p.[moe](G)p.[moe](G)[sp].[moe](T)}$$$$ (last 3' nucleoside missing)” was tested, and the 3 h FOB score was 3 score 0-7.
“RNA1{[moe](T)[sp].[moe]([m5C])p.[moe]([m5C])p.[moe]([m5C])p.[moe](A)p.d(T)[sp].d([m5C])[sp].d(A)[sp].d(T)[sp].d([m5C])[sp].d(A)[sp].d(G)[sp].d(T)[sp].d(G)[sp].d(T)[sp].[moe](G)p.[moe](T)p.[moe](G)[sp].[moe]([m5C])}$$$$ (last 3' nucleoside missing)” showed a 3 h FOB score of 3.25 score 0-7.
Substance “RNA1{[moe]([m5C])[sp].[moe](A)[sp].[moe](A)[sp].[moe]([m5C])[sp].[moe](T)[sp].d(G)[sp].d(T)[sp].d(T)[sp].d(A)[sp].d([m5C])[sp].d([m5C])[sp].d(A)[sp].d(A)[sp].d(G)[sp].d(A)[sp].[moe]([m5C])[sp].[moe](T)[sp].[moe](T)[sp].[moe]([m5C])}$$$$ (last 3' nucleoside missing)” has a 3 h FOB score of 4.8 score 0-7.
In the case of “RNA1{[moe]([m5C])[sp].[moe](A)p.[moe](A)p.[moe](G)p.[moe](A)p.d([m5C])[sp].d([m5C])[sp].d(T)[sp].d(A)[sp].d(T)[sp].d(A)[sp].d(G)[sp].d(G)[sp].d(A)[sp].d([m5C])[sp].[moe]([m5C])p.[moe](T)p.[moe]([m5C])[sp].[moe](A)}$$$$ (last 3' nucleoside missing)”, the 3 h FOB score is reported as 3 score 0-7.
“RNA1{[moe]([m5C])[sp].[moe](A)p.[moe](A)p.[moe](T)p.[moe](G)p.d(G)[sp].d(T)[sp].d(T)[sp].d(T)[sp].d(A)[sp].d(G)[sp].d(T)[sp].d(G)[sp].d(T)[sp].d([m5C])[sp].[moe](A)p.[moe](T)p.[moe](A)[sp].[moe](T)}$$$$ (last 3' nucleoside missing)” was tested, and the 3 h FOB score was 5 score 0-7.
“RNA1{[moe]([m5C])[sp].[moe](A)p.[moe](A)p.[moe]([m5C])p.[moe](T)p.d(T)[sp].d([m5C])[sp].d(A)[sp].d(T)[sp].d([m5C])[sp].d(A)[sp].d(A)[sp].d(T)[sp].d(A)[sp].d(T)[sp].[moe](T)p.[moe](T)p.[moe]([m5C])[sp].[moe]([m5C])}$$$$ (last 3' nucleoside missing)” showed a 3 h FOB score of 1 score 0-7.
In the case of “RNA1{[moe]([m5C])[sp].[moe](A)p.[moe](G)p.[moe](A)p.[moe](G)p.d(T)[sp].d(G)[sp].d(T)[sp].d([m5C])[sp].d(T)[sp].d(T)[sp].d(A)[sp].d(G)[sp].d(G)[sp].d(G)[sp].[moe](T)p.[moe]([m5C])p.[moe](T)[sp].[moe]([m5C])}$$$$ (last 3' nucleoside missing)”, the 3 h FOB score is reported as 5.5 score 0-7.
Substance “RNA1{[moe]([m5C])[sp].[moe](A)p.[moe](G)p.[moe](A)p.[moe](T)p.d(T)[sp].d([m5C])[sp].d([m5C])[sp].d(T)[sp].d(A)[sp].d(A)[sp].d(A)[sp].d(T)[sp].d(A)[sp].d([m5C])[sp].[moe](G)p.[moe]([m5C])p.[moe](A)[sp].[moe]([m5C])}$$$$ (last 3' nucleoside missing)” has a 3 h FOB score of 0 score 0-7.
Substance “RNA1{[moe]([m5C])[sp].[moe](A)p.[moe](G)p.[moe](A)p.[moe]([m5C])p.d(T)[sp].d(T)[sp].d(A)[sp].d(T)[sp].d(T)[sp].d(G)[sp].d(A)[sp].d(G)[sp].d(G)[sp].d(A)[sp].[moe](T)p.[moe](G)p.[moe](G)[sp].[moe](T)}$$$$ (last 3' nucleoside missing)” has a 3 h FOB score of 5.7 score 0-7.
“RNA1{[moe]([m5C])[sp].[moe](A)p.[moe](G)p.[moe](G)p.[moe](T)p.d(G)[sp].d(T)[sp].d([m5C])[sp].d(T)[sp].d(T)[sp].d(A)[sp].d(T)[sp].d(A)[sp].d(T)[sp].d([m5C])[sp].[moe](T)p.[moe](A)p.[moe](T)[sp].[moe](G)}$$$$ (last 3' nucleoside missing)” was tested, and the 3 h FOB score was 0 score 0-7.
“RNA1{[moe]([m5C])[sp].[moe](A)p.[moe](G)p.[moe](T)[sp].d(T)[sp].d(A)[sp].d(G)[sp].d(G)[sp].d(T)[sp].d(T)[sp].d(A)[sp].d(G)[sp].[moe](T)p.[moe](G)p.[moe]([m5C])p.[moe](A)[sp].[moe]([m5C])}$$$$ (last 3' nucleoside missing)” showed a 3 h FOB score of 2 score 0-7.
